Experimental data taken from ChEMBL document CHEMBL4152230, “Discovery of N-{3-[(ethanimidoylamino)methyl]benzyl}-l-prolinamide dihydrochloride: A new potent and selective inhibitor of the inducible nitric oxide synthase as a promising agent for the therapy of malignant glioma” (Eur J Med Chem, 2018).
One block for each compound: values may come before it. The source made the active and inactive calls. The calls are words filed in the database; no cut-off is given here.

Columns and labels:
[1] = biological target: T1, Nitric oxide synthase, inducible (Mus musculus, UniProt P29477); assay: Inhibition of recombinant mouse iNOS using [3H]L-arginine as substrate preincubated for 15 mins followed by NADPH addition measured after 20 mins in presence of FMN/FAD by liquid scintillation counting method
T1 sequence (P29477 whole entry): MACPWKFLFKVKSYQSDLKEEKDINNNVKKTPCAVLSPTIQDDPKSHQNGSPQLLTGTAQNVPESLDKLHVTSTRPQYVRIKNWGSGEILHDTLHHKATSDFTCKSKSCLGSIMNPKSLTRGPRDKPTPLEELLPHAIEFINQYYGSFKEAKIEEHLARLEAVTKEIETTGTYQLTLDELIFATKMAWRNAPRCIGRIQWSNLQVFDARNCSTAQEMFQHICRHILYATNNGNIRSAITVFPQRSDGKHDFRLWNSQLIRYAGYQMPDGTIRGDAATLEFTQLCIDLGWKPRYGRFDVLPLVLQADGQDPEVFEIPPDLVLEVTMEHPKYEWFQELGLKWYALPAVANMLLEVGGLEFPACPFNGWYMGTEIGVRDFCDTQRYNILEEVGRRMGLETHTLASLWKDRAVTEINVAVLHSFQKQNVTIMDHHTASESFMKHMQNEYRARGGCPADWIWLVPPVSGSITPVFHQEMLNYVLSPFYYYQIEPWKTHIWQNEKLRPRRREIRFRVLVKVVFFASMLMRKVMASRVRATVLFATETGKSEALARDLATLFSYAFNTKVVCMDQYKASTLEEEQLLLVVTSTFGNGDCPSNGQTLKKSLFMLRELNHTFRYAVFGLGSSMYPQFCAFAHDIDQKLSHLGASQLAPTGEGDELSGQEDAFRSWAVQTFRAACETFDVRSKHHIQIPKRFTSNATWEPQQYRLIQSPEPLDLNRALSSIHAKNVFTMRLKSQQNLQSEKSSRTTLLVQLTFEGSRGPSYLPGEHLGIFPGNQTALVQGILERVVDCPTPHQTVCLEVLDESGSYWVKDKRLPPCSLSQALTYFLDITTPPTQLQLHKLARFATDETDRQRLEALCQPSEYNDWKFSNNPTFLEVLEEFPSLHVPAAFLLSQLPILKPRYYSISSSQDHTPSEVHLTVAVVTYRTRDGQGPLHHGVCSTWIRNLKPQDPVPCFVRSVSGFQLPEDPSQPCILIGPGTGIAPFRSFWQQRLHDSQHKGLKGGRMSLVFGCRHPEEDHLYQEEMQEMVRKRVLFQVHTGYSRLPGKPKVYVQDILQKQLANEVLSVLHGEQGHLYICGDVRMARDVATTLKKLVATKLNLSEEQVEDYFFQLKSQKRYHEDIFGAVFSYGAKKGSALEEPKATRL

[2] = biological target: T2, Nitric oxide synthase 3 (Bos taurus, UniProt P29473); assay: Inhibition of recombinant bovine eNOS using [3H]L-arginine as substrate preincubated for 15 mins followed by NADPH addition measured after 20 mins in presence of FMN/FAD by liquid scintillation counting method
T2 sequence (P29473 whole entry): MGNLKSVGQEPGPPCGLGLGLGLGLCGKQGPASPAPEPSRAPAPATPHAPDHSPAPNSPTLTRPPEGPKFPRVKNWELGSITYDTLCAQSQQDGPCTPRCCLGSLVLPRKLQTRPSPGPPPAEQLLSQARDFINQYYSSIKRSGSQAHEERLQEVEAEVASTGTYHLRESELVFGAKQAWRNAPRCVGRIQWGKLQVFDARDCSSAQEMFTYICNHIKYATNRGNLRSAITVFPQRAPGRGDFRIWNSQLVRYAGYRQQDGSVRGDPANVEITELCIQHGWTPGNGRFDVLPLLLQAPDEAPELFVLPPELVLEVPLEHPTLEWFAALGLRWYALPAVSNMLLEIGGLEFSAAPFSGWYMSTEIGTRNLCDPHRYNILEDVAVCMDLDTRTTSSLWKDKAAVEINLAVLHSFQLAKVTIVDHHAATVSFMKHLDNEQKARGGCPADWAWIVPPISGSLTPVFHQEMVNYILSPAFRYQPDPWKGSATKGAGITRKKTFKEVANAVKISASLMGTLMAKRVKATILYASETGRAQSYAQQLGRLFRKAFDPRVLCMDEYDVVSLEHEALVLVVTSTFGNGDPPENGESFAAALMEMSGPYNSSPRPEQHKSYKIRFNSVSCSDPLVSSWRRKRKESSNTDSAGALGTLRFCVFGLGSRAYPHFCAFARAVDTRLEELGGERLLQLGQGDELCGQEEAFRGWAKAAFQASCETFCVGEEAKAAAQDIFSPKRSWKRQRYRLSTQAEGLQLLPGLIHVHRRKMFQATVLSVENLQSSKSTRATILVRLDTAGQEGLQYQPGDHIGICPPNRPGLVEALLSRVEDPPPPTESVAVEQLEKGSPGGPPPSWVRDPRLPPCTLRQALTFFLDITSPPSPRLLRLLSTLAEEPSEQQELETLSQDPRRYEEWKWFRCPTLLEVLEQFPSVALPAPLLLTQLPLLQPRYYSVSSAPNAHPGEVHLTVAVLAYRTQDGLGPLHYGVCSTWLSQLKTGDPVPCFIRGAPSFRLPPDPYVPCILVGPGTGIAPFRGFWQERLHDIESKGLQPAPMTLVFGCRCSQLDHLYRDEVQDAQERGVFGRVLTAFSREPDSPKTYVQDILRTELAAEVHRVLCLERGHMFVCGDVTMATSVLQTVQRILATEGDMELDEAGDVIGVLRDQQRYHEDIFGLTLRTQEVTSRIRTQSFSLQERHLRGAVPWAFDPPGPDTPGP

[3] = Selectivity index, ratio of IC50 for recombinant bovine eNOS to IC50 for recombinant mouse iNOS
[4] = Cytotoxicity against rat CTX/TNA2 cells assessed as cell proliferation at 1 mM after 48 hrs by MTT assay relative to control; format: cell-based; settings: read-out: Activity
[5] = system: C6; assay: Cytotoxicity against rat C6 cells assessed as LDH release at 0.5 mM after 72 hrs by CytoTox96 non-radioactive assay (reference value: 5.41%); format: functional
[6] = system: C6; assay: Cytotoxicity against rat C6 cells assessed as LDH release at 1.5 mM after 72 hrs by CytoTox96 non-radioactive assay (reference value: 5.41%); format: functional
[7] = Half life in human plasma by HPLC analysis; format: ADME, cell-free
[8] = system: C6; assay: Cytotoxicity against rat C6 cells assessed as cell proliferation at 1 mM after 24 hrs by MTT assay relative to control; format: functional; settings: C6, 24 h, read-out: Activity
[9] = system: C6; assay: Cytotoxicity against rat C6 cells assessed as cell proliferation at 1.5 mM after 24 hrs by MTT assay relative to control; format: functional; settings: C6, 24 h, read-out: Activity
[10] = system: C6; assay: Cell cycle arrest in rat C6 cells assessed as accumulation at S phase at 1.5 mM after 72 hrs by propidium iodide staining based flow cytometry (reference value: 22.64%); format: functional
[11] = system: C6; assay: Cytotoxicity against rat C6 cells assessed as cell proliferation at 1 mM after 72 hrs by MTT assay relative to control; format: functional; settings: C6, 72 h, read-out: Activity
[12] = system: C6; assay: Cytotoxicity against rat C6 cells assessed as inhibition of cell proliferation after 24 to 48 hrs by MTT assay; format: functional, cell-based
[13] = system: C6; assay: Cytotoxicity against rat C6 cells assessed as cell proliferation at 0.25 mM after 48 hrs by MTT assay relative to control; format: functional; settings: C6, 48 h, read-out: Activity
[14] = system: C6; assay: Cytotoxicity against rat C6 cells assessed as cell proliferation at 1.5 mM after 72 hrs by MTT assay relative to control; format: functional; settings: C6, 72 h, read-out: Activity
[15] = Half life in pH 2 HCl after 24 hrs by HPLC analysis; format: physicochemical; settings: HCl solution, pH 2, pH 2
[16] = system: C6; assay: Cytotoxicity against rat C6 cells assessed as cell proliferation at 2 mM after 72 hrs by MTT assay relative to control; format: functional; settings: C6, 72 h, read-out: Activity
[17] = system: C6; assay: Cell cycle arrest in rat C6 cells assessed as accumulation at G1 phase at 1.5 mM after 72 hrs by propidium iodide staining based flow cytometry (reference value: 63.97%); format: functional
[18] = Selectivity ratio of IC50 for recombinant rat nNOS to IC50 for recombinant mouse iNOS
[19] = Cytotoxicity against rat CTX/TNA2 cells assessed as cell proliferation at 1 mM after 24 hrs by MTT assay relative to control; format: cell-based; settings: read-out: Activity
[20] = system: C6; assay: Cytotoxicity against rat C6 cells assessed as LDH release at 0.25 mM after 72 hrs by CytoTox96 non-radioactive assay (reference value: 5.41%); format: functional
[21] = Half life in pH 7.4 PBS buffer after 24 hrs by HPLC analysis; format: physicochemical; settings: pH 7.4, pH 7.4
[22] = system: C6; assay: Cytotoxicity against rat C6 cells assessed as LDH release at 1 mM after 72 hrs by CytoTox96 non-radioactive assay (reference value: 5.41%); format: functional
[23] = system: C6; assay: Cytotoxicity against rat C6 cells assessed as LDH release at 0.75 mM after 72 hrs by CytoTox96 non-radioactive assay (reference value: 5.41%); format: functional
[24] = biological target: Nitric oxide synthase, inducible (Rattus norvegicus) (UniProt Q06518); assay: Ex vivo inhibition of iNOS in mesenteric vascular arteries isolated from LPS-induced septic shock Sprague-Dawley rat model assessed as increase in noradrenaline-mediated vasoconstriction by measuring changes in perfusion pressure at 0.06 uM preincubated for 30 mins followed by noradrenaline treatment
Nitric oxide synthase, inducible (Rattus norvegicus), sequence (Q06518 whole entry, the tested form may be a part): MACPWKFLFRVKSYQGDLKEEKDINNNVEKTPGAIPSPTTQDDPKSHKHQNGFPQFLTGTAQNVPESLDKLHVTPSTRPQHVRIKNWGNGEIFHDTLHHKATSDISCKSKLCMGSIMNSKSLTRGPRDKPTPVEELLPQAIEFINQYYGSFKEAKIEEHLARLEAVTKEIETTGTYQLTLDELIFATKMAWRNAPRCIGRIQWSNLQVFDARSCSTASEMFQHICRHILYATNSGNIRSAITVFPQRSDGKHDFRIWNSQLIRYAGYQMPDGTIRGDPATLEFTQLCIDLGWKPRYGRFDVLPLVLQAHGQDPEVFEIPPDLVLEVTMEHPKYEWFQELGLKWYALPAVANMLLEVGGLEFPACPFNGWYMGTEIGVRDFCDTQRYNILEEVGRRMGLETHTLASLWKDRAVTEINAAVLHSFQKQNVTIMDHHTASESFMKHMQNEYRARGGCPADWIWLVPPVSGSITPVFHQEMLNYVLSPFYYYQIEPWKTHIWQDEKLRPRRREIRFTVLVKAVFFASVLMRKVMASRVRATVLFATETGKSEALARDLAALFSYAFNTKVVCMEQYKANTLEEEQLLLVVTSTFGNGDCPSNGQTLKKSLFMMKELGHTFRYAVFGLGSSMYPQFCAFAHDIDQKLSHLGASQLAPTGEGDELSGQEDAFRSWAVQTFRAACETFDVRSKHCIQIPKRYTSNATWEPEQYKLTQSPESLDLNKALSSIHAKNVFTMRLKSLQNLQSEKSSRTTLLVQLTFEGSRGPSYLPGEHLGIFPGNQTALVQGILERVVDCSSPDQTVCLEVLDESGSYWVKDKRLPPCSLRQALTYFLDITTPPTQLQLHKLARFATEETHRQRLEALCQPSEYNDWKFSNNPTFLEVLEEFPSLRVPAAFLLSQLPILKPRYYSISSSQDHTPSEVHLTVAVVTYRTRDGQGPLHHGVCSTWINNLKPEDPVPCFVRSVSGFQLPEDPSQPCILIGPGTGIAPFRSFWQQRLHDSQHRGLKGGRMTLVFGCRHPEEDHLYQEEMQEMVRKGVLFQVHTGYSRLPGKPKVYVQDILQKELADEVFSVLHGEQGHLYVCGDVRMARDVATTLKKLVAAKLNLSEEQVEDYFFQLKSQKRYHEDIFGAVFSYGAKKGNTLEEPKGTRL

[25] = system: C6; assay: Cytotoxicity against rat C6 cells assessed as LDH release at 2 mM after 72 hrs by CytoTox96 non-radioactive assay (reference value: 5.41%); format: functional
[26] = Cytotoxicity against rat CTX/TNA2 cells assessed as inhibition of cell proliferation at 0.25 to 2 mM up to 72 hrs by MTT assay; format: cell-based; settings: 2000 µM
[27] = system: C6; assay: Cytotoxicity against rat C6 cells assessed as cell proliferation at 2 mM after 24 hrs by MTT assay relative to control; format: functional; settings: C6, 24 h, read-out: Activity
[28] = biological target: Nitric oxide synthase 1 (Rattus norvegicus, UniProt P29476); assay: Inhibition of recombinant rat nNOS using [3H]L-arginine as substrate preincubated for 15 mins followed by NADPH addition measured after 20 mins in presence of FMN/FAD by liquid scintillation counting method
Nitric oxide synthase 1, sequence (P29476 whole entry): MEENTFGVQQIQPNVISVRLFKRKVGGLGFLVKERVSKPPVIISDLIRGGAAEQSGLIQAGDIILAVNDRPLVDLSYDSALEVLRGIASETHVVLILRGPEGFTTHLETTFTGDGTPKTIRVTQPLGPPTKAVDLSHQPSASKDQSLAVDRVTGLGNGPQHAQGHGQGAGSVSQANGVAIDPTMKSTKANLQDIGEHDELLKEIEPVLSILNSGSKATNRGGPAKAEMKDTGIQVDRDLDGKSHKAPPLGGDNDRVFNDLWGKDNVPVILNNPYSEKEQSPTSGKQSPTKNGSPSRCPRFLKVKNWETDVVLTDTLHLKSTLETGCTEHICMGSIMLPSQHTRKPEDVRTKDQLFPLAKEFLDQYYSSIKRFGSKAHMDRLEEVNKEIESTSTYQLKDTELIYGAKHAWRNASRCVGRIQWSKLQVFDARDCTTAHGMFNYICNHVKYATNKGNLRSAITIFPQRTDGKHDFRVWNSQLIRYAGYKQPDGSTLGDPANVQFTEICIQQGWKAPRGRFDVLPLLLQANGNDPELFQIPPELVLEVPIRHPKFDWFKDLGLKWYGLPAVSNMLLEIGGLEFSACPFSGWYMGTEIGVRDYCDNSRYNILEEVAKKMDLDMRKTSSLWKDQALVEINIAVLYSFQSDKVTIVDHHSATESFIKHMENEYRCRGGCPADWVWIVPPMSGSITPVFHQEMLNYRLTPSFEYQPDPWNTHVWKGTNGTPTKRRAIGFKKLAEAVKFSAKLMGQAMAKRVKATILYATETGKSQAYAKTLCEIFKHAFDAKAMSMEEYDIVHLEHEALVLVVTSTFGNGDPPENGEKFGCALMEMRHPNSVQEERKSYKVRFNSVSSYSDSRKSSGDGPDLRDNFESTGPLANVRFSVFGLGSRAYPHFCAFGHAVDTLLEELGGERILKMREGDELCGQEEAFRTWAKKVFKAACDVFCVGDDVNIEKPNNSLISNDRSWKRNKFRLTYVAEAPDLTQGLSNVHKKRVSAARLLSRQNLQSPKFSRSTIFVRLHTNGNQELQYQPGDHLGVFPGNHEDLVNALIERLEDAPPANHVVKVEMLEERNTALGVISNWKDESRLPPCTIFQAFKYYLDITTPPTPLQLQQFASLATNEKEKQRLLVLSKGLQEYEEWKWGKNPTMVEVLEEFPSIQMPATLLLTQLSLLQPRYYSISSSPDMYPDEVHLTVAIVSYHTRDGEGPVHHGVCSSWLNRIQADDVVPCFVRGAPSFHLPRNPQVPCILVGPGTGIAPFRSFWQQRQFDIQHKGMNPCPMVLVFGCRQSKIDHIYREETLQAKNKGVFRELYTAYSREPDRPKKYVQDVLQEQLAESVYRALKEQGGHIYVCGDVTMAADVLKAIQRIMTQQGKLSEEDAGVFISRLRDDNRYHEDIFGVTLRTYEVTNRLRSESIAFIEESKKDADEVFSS

[29] = Half life in pH 9 NaOH solution after 24 hrs by HPLC analysis; format: physicochemical; settings: pH 9, pH 9

SMILES: CC(=N)NCc1cccc(CNC(=O)[C@@H](N)C(C)C)c1
- IC50 [1]: > 10000 nM

SMILES: CC(=N)NCc1cccc(CNC(=O)[C@@H](N)Cc2cnc[nH]2)c1
- IC50 [2]: > 1000 µM
- IC50 [1]: 534 nM
- Ratio IC50 [3]: > 1870

SMILES: CC(=N)NCc1cccc(CNC(=O)[C@@H](N)Cc2ccccc2)c1
- IC50 [1]: > 10000 nM

SMILES: CC(=N)NCc1cccc(CNC(=O)[C@@H]2CCCN2)c1.Cl.Cl
- viability at 48 h, 1000 µM [4]: 125%
- Activity [5]: 27.21%
- Activity [6]: 23.27%
- half-life [7]: 660 min
- growth at 1000 µM [8]: 118%
- growth at 1500 µM [9]: 114%
- Activity [10]: 12.12%
- growth at 1000 µM [11]: 77.5%
- IC50 [2]: 265 µM
- inhibition [12]: Dose-dependent effect
- growth at 250 µM [13]: 80.4%
- growth at 1500 µM [14]: 63.2%
- half-life [15]: > 1440 min
- growth at 2000 µM [16]: 55.2%
- Activity [17]: 71.79%
- Ratio IC50 [18]: > 172
- viability at 24 h, 1000 µM [19]: 122%
- IC50 [1]: 58 nM
- Activity [20]: 26.54%
- half-life [21]: > 1440 min
- Activity [22]: 16.78%
- Activity [23]: 20.99%
- Ratio IC50 [3]: 4570
- inhibition [24]: Active
- Activity [25]: <=25.52%
- Activity [26]: Non-Toxic
- growth at 2000 µM [27]: ≤ 89.5%
- IC50 [28]: > 10 µM
- half-life [29]: > 1440 min

Other lines, results leading:

- IC50 [1]: > 10000 nM
SMILES: CC(=N)NCc1cccc(CNC(=O)[C@@H](N)[C@@H](C)O)c1

- IC50 [2]: 211 µM
- IC50 [1]: 446 nM
- Ratio IC50 [3]: 473
SMILES: CC(=N)NCc1cccc(CNC(=O)[C@@H](N)CCCCN)c1

- IC50 [2]: 300 µM
- IC50 [1]: 253 nM
- Ratio IC50 [3]: 1180
SMILES: CC(=N)NCc1cccc(CNC(=O)[C@@H](N)CC(C)C)c1

- IC50 [2]: 331 µM
- IC50 [1]: 1020 nM
- Ratio IC50 [3]: 323
SMILES: CC(=N)NCc1cccc(CNC(=O)[C@@H](N)CC(=O)O)c1

- IC50 [1]: > 10000 nM
SMILES: CC(=N)NCc1cccc(CNC(=O)[C@@H](N)Cc2ccc(O)cc2)c1

- IC50 [1]: > 10000 nM
SMILES: CC(=N)NCc1cccc(CNC(=O)[C@@H](N)CC(N)=O)c1
